Results: US4119653A, “Co-ordination compounds of platinum” (Rustenburg Platinum Mines Limited, priority 1976, dated 1978)

What was measured:
ADJ/PC6 tumour = assay: Antitumour test, ADJ/PC6 tumour, arachis oil intraperitoneal; type: in vivo, Balb-c white mice
Text: Vehicle: Arachis oil/Intraperitoneal
Subject: Balb-c white mice
(§1) Again as with the results given earlier, the tumour was ADJ/PC6, the vehicle was Arachis oil administered intraperitoneally to Balb-c white mice.

Balb-c white mice = assay: Toxicity (LD50 / deaths), arachis oil intraperitoneal
Text: Vehicle: Arachis oil/Intraperitoneal
Subject: Balb-c white mice
as §1

Compound | inhib (ADJ/PC6 tumour; table 9, line under Cl4 n-octyl, dose not stated) | LD50 (Balb-c white mice; table 9) | % Inhibition (ADJ/PC6 tumour; dose 12 mgm/Kgm, Balb-c mice) | % Inhibition (ADJ/PC6 tumour; dose 60 mgm/Kgm, Balb-c mice) | ED90 (ADJ/PC6 tumour; table 1, doses in mgm/Kgm, Balb-c mice) | LD50 (Balb-c white mice; table 1, doses in mgm/Kgm)
CCCCCCCCN.CCCCCCCCN.[Cl][Pt]([Cl])([Cl])[Cl] [Cl4 n-octyl] | < 20% | 270 mg/kg | – | – | – | –
[NH2][Pt]([NH2])([OH])([OH])([Cl])[Cl] [trans di-hydroxo complexes of Pt(IV)] | – | – | 95.4% | 97.1% | < 12 mg/kg | 135 mg/kg
